These results are taken from a melting point compilation (Tetko et al.; mined from patent text by program, amines drawn as free bases though some values may be those of a salt).

Regarding `COC(=O)c1ccc(CCCNCC(O)c2cccc(Cl)c2)cc1` (centres undefined), the melting point lay within 89 to 92 °C.

`O=C1c2cccc3c(Cl)ccc(c23)C(=O)N1O`: the melting point fell in the range of 234 to 236 °C.

`CCC(C)Nc1nc(Cc2cc(OC)c(OC)c(OC)c2)nc2sc(C#N)c(C)c12` (centres undefined) came in with a melting point of 134 to 137 °C.

Turning to `O=C(Nc1ccccc1)n1cc(F)c(NCc2ccccc2F)nc1=O`, the melting point is 154 to 157 °C.

`N=C(NO)c1cccc(-c2ccc(O)c(-c3nc4cc(C(=N)NO)ccc4[nH]3)c2)c1` had a melting point of 352 to 355 °C.

Consider `Cn1c(=O)c2c(N)ncnc2n(C)c1=O`, for which the melting point is more than 300 °C.

`CCCc1cc(CCCOc2c(C)cc(-c3noc(C)n3)cc2C)on1` displayed a melting point of 69 to 70 °C.

The compound `COC(=O)Nc1nc2ccc(SC[Si](C)(C)C)cc2[nH]1` came in with a melting point of 189 to 191 °C.

Turning to `Cc1nc(-c2ccc(-c3ccccc3S(=O)(=O)Nc3onc(C)c3C)cc2)co1`, the melting point was 90 to 100 °C.

The compound `CN(C)C1CC=C(c2c[nH]c3ccc([N+](=O)[O-])cc23)CC1` (centres undefined) gave a melting point of 234 to 236 °C.

Take `COc1cccc(CC(=O)O)c1OCCCc1cn(-c2ccc(C#N)nn2)nc1C(C)C`: the melting point fell in the range of 132 to 133 °C.

For `O=C(O)C(CC(=O)N1CCOCC1)Oc1ccccc1` (centres undefined), the melting point was 150 to 151 °C.

The compound `CC1CC(=O)NN=C1c1ccc(N=CNc2ccc(C3=NNC(=O)CC3C)cc2)cc1` (centres undefined) returned a melting point of 306 to 308 °C.

In turn, `CCNC(=O)N1CC(Oc2ccc(C(F)(F)F)cc2)C1` displayed a melting point of 94 to 96 °C.

In turn, `COC(=O)C1=C(C)NC(C)=C(C(=O)OCCN2CCN(c3ccccc3OC)CC2)C1c1cccc([N+](=O)[O-])c1` (centres undefined) gave a melting point of 58 °C.

With `O=C1CCc2c(Cl)sc(-c3ccccc3F)c21`, the melting point lay in the range of 133 to 135 °C.

Turning to `CC(=O)CC1=C(O)CCCC1=O`, the melting point was in the range of 80 to 81 °C.

`COc1cccc(-c2cc(=O)c3cccc(C(=O)Nc4ccc(CCCCN5CCc6cc(OC)c(OC)cc6C5)cc4)c3o2)c1` showed a melting point of 152 °C.

Compound `CN(CCCc1ccc(F)cc1)[C@H]1CC[C@H](c2ccc3[nH]c(=O)oc3c2)CC1` yielded a melting point of 62 to 65 °C.

In turn, `O=C(O)c1cn(C(c2ccccc2)(c2ccccc2)c2ccccc2)c(I)n1` registered a melting point of 203 to 205 °C.

`O=P(O)(O)C(F)(F)c1ccc(CN(Cc2ccc(C(F)(F)P(=O)(O)O)cc2)S(=O)(=O)CCc2ccccc2)cc1` returned a melting point of 181 to 183 °C.

`Oc1ccc2c(c1)cc1n2CCC1` gave a melting point of 116 to 118 °C.

For the compound `CN(C(=O)Nc1ccc(F)cc1F)c1cnc2ccc(Cl)cc2c1-c1ccccc1`, the melting point fell in the range of 200 to 201 °C.

Turning to `CS(=O)(=O)c1ccc(C[C@@H](NC(=O)OCc2ccccc2)[C@H](O)C(N)=O)cc1`, the melting point lay within 186 to 191 °C.

`CN(c1c(Cl)cc(Cl)cc1Cl)n1cc(C#N)c(=O)n(C)c1=O`: the melting point was in the range of 175 to 178 °C.

The compound `Cc1nc2c(-c3cccc(N4CCOCC4)c3)cnn2c(N)c1-c1cccc(Cl)c1` returned a melting point of 165 to 167 °C.

Take `Nc1c(-c2csc(-c3ccncc3)n2)c(=O)[nH]c2ccc(N3CCCCC3)cc12`: the melting point lay in the range of 199 to 202 °C.

For the compound `CN(C)c1ccc2nc[nH]c(=O)c2c1`, the melting point lay within 233 to 236 °C.

For `O=C(NCc1cccnc1)c1ccc2n1Cc1ccccc1N(C(=O)/C=C/c1ccccc1)C2`, the melting point worked out at 175 °C.

`O=C(Nc1ccc(-n2nc(C(F)(F)F)cc2C2CC2)nc1)c1c(F)cccc1F` showed a melting point of 157 to 162 °C.

In turn, `COC(=O)C[C@H](O)CC(=O)CCc1c(-c2ccc(F)cc2)c(-c2ccccc2)c(C(=O)Nc2ccccc2)n1C(C)C` had a melting point of 75 to 77 °C.

Compound `CCOc1ccn(C2OC(CO)C(O)C2O)c(=O)n1` (centres undefined) returned a melting point of 110 to 114 °C.

With `COC(=O)C1Cc2c([nH]c3ccccc23)C(c2cc(OC)ccc2OC)N1` (centres undefined), the melting point fell in the range of 102 to 105 °C.

Compound `O=[N+]([O-])c1ccc(Br)cc1-c1cc(-c2cccc(Br)c2)no1` showed a melting point of 179 to 180 °C.

Take `CC(C)(C)OC(=O)Nc1cc(N2CCSCC2)c(I)cc1[N+](=O)[O-]`: the melting point was in the range of 132 to 134 °C.

As for `O=C(Oc1ccccc1)C(=C1NCCCS1)[N+](=O)[O-]`, the melting point fell in the range of 100 to 102 °C.

`CCn1c2ccccc2c2c3c(ccc21)c(C=O)cn3C`: the melting point lay in the range of 144 to 146 °C.

Regarding `CNCC[C@H]1CC[C@H](C(=O)O)CC1`, the melting point lay in the range of 212 to 214 °C.

The compound `COc1ccc2c(c1)CC(C(=O)O)CC2` (centres undefined) displayed a melting point of 119 to 122 °C.

In turn, `CC(=O)SCC(C)C(=O)N(CC(=O)O)C1CCCCC1` (centres undefined) had a melting point of 142 to 144 °C.

Turning to `COc1ccc(-c2c(N)oc3c(C(C)(C)C)cc(C(C)(C)C)cc23)cc1OC`, the melting point was 172 to 174 °C.

Take `COc1ccc(C(=O)O)c(N)c1OC`: the melting point fell in the range of 183 to 184 °C.

The compound `CN(C)c1ccc(C2CC3(C)C(O)CC(O)C3C3CCC4CC5(CCC4=C23)OCCO5)cc1` (centres undefined) came in with a melting point of 107 to 109 °C.

The compound `CC(C)c1ccc(NC(=O)C2CCCc3ccccc32)cn1` (centres undefined) had a melting point of 156 °C.

As to `COc1cc(C(=O)Cl)ccc1OCc1ccccc1`, the melting point lay in the range of 63 to 65 °C.

As for `O=C(NC1CCC1)c1ccc2nonc2c1`, the melting point was in the range of 175 to 176 °C.

On to `CCCNC(=O)CCn1ccc(=O)c(O)c1`, for which the melting point lay in the range of 113 to 114 °C.

Turning to `Brc1cccc(Sc2ccccc2)n1`, the melting point is 47 °C.

For the compound `CS(=O)(=O)N1CCN([C@@H](CNC(=O)c2ccc(OCc3ccccc3)cc2)C(=O)NO)CC1`, the melting point turned out to be 150 °C.

For `COCOc1ccc(Cl)cc1-c1cc(-c2cccc([N+](=O)[O-])c2)c(C#N)c(NC(=O)c2cccs2)n1`, the melting point was in the range of 161 to 162 °C.

Regarding `CCOC(=O)COc1ccc(C(=O)[C@@H](NC(=O)c2ccc(C(=N)NC(=O)OC(C)(C)C)cc2)[C@@H](C)OC(C)(C)C)cc1`, the melting point fell in the range of 95 to 97 °C.

For the compound `Nc1c2c(nc3cccc(F)c13)CCCC2`, the melting point came out at 175 °C.

Consider `OCCCc1ccccc1OCc1coc(/C=C/c2ccccc2)n1`, for which the melting point fell in the range of 76 to 77 °C.

Consider `CSc1ccc(C2=C(c3cccs3)C(=O)C(C)(C)O2)cc1`, for which the melting point fell in the range of 113 to 114 °C.

`COC(=O)CCCc1nc(-c2ccc(F)cc2)c(-c2ccc(S(C)(=O)=O)cc2)o1` gave a melting point of 89 to 91 °C.

Compound `CSC1NC(=O)N(C(C)C)C(=O)N1C` (centres undefined) gave a melting point of 73 to 75 °C.

`O=C(Nc1cccnn1)N1CCN(c2nccc(-c3ccccc3F)n2)CC1`: the melting point lay in the range of 228 to 229 °C.

As to `CCCCCCCCCCCCOc1ccc(-c2cc3ccccc3[nH]2)cc1`, the melting point was determined as 204 °C.

In turn, `CN1CCc2[nH]c3ccc4sccc4c3c2C1` yielded a melting point of 189 °C.

For `CCOc1ccc([N+](=O)[O-])c(Nc2ccc(C(C)C)cc2)c1`, the melting point came to 100 °C.

Compound `Nc1cc(Cl)c([N+](=O)[O-])cc1CCO` gave a melting point of 176 °C.

The compound `S=C1N[C@@H](c2ccccc2)[C@H](c2ccccc2)N1` (relative stereo) showed a melting point of 212 to 214 °C.

In turn, `CCCCCCCCCCCCn1nnc(N(C(=O)Nc2ccc(F)cc2F)c2ccccc2)n1` registered a melting point of 55 to 57 °C.

`CCOC(=O)C1=Cc2cc(C(F)(F)F)ccc2NC1C(F)(F)F` (centres undefined) yielded a melting point of 138 to 139 °C.

`CCCc1nc(C)n2nc(S(=O)(=O)N(C)C)nc2c1Cc1ccc(-c2ccccc2C#N)cc1` yielded a melting point of 158 °C.

In turn, `CCOC(=O)c1cnc2ccnn2c1Cl` returned a melting point of 93 to 95 °C.

Turning to `O=C1Cc2ccccc2Sc2cc(F)c(F)cc21`, the melting point lay in the range of 110 to 112 °C.

In the case of `O=C(C=Cc1ccccc1)OCC#CC#CCOC(=O)C=Cc1ccccc1`, the melting point lay in the range of 102 to 104 °C.

In the case of `O=C1CC(C(=O)NC(Cc2ccc(C(F)(F)F)cc2)C(O)c2ccc(F)cc2)c2ccccc21` (racemic), the melting point lay in the range of 237 to 238 °C.

Regarding `COc1ccccc1-c1ccccc1C#N`, the melting point lay within 54 to 55 °C.

`C=CCC(CCC(CC=C)(C(=O)c1ccc(NCCO)cc1)N(C)C)(C(=O)c1ccc(NCCO)cc1)N(C)C` (centres undefined) displayed a melting point of 95 to 96 °C.

On to `NC(=O)c1c(F)ccc(OCc2nc3ccc(Cl)cc3s2)c1F`, for which the melting point is 190 to 191 °C.

For the compound `Cc1c(NC(=O)C(CSC(=O)C2CCCCC2)Cc2ccccc2)cccc1C(=O)O` (centres undefined), the melting point is 117 to 120 °C.

The compound `Cc1ccc2[nH]c(=O)sc2c1` gave a melting point of 70 to 71 °C.

Consider `O=C(O)CC1Cc2cccc3cccc1c23` (centres undefined), for which the melting point stood at 123 °C.

In turn, `C=C(Br)CN1Cc2cccc3[nH]c(=O)n(c23)CC1C` (centres undefined) gave a melting point of 150 °C.

The compound `CCOC(=O)c1c[nH]c2cc(C(=O)NCCc3ccc(Cl)cc3)nn2c1=O` had a melting point of more than 300 °C.

`CCCc1c(C)c2ccc(O)cc2oc1=O` yielded a melting point of 160 to 173 °C.

`CCOC(=O)n1c(SC(F)(F)F)cc(-c2ccc(F)cc2)c1-c1ccc(F)cc1`: the melting point lay within 54 to 54.5 °C.

Turning to `C[C@@H](N1CCN(S(C)(=O)=O)CC1)[C@](O)(Cn1cncn1)c1ccc(F)cc1F`, the melting point lay in the range of 83 to 85 °C.

With `CC(C)Nc1cc(=O)n(-c2ccccc2)nc1-c1nc[nH]n1`, the melting point lay in the range of 203 to 205 °C.

As for `Cc1cccc(Cl)c1C1N=C(N(C)C)Cc2ccccc21` (centres undefined), the melting point fell in the range of 153 to 154 °C.

Compound `CCc1cccc2c3c([nH]c12)C(CC)(CC(=O)OC)OCC3O` (centres undefined) yielded a melting point of 117 to 118 °C.

The compound `Cn1nnnc1-c1cc(-c2ccc(F)cc2)sc1-c1ccc(F)cc1` showed a melting point of 175 to 176 °C.

The compound `COc1ccccc1-c1cc2[nH]c3ccc(O)cc3c2c2c1C(=O)NC2=O` returned a melting point of 216 °C.

Turning to `COc1ccc2c(c1)c1c(n2C)C2(C)CCC(=O)N2CC1` (centres undefined), the melting point lay within 164 to 167 °C.

`CC(=O)OCCCN(C)CCCN(C)C(=O)[C@@H]1CCCN1S(=O)(=O)c1ccc(Cl)c(COc2cccc3c(-n4ccnc4)cc(C)nc23)c1Cl` showed a melting point of 90 °C.

Take `COc1cc(N(CC(N)=O)S(=O)(=O)c2ccc(OC)c(OC)c2)c(C(O)c2c(F)cccc2F)cc1C` (centres undefined): the melting point is 204 °C.

With `COc1cc(C(=O)CBr)cc(OC)c1OC(C)=O`, the melting point fell in the range of 124 to 126 °C.
